What all share (format): functional, cell-based
The test system of one test is P388. As to the kind of experiment: Cytotoxicity against mouse P388 cells.
In another test the test system is A549. Kind of test: Cytotoxicity against human A549 cells.
The subject of a further test is KB. Kind of test: Cytotoxicity against human KB cells.

Activity calls are given as the source filed them. No cut-off for these calls is given here.

Broadly, the IC50 is the point on the concentration scale where inhibition reaches its midpoint.

Take `C=C1[C@@H](C)[C@H]2[C@H](Cc3c[nH]c4ccccc34)NC(=O)[C@]23C(=O)C[C@H]2C(=O)C(O)=C(C)[C@@H]2[C@@H](C)C/C=C/[C@H]3[C@@H]1O` [CYTOGLOBOSIN A]: the outcome in the test on P388 and in the test with KB was inactive. In addition, in the test on A549, the IC50 was > 10000 nM.

With `CC1=C(C)[C@H]2[C@H](Cc3c[nH]c4ccccc34)NC(=O)[C@]23C(=O)/C=C/[C@H](O)[C@H](O)/C(C)=C/[C@@H](C)C/C=C/[C@H]3[C@@H]1O` [CYTOGLOBOSIN C], the outcome in the test with P388 and in the test on KB was inactive. The molecule also displayed a concentration for half-maximal inhibition (IC50) in the test on A549 of 2260 nM.

In the case of `CC1=C[C@@H]2/C=C/C[C@H](C)/C=C(\C)[C@@H](O)[C@@H](O)/C=C/C(=O)[C@]23C(=O)N[C@@H](Cc2c[nH]c4ccccc24)[C@@H]3[C@@H]1C` [CYTOGLOBOSIN D], the outcome in the test on P388 and with KB was inactive. Besides, in the test with A549, the IC50 is 2550 nM.

Take `C/C1=C\[C@@H](C)C/C=C/[C@H]2C=C(CO)[C@@H](C)[C@H]3[C@H](Cc4c[nH]c5ccccc45)NC(=O)[C@]32C(=O)CCC(=O)C1=O` [CYTOGLOBOSIN E]: the outcome in the test on P388 and in the test with KB was inactive. Moreover, the IC50 with A549 is > 10000 nM.

On to `C=C1[C@@H](C)[C@H]2[C@H](Cc3c[nH]c4ccccc34)NC(=O)[C@]23C(=O)/C=C/[C@H](O)[C@H](O)/C(C)=C/[C@@H](C)C/C=C/[C@H]3[C@@H]1O` [CYTOGLOBOSIN B], for which the result in the test with P388 and in the test with KB was inactive. In addition, the IC50 with A549 was > 10000 nM.

Source of the values: ChEMBL document CHEMBL1157085, “Cytoglobosins A-G, cytochalasans from a marine-derived endophytic fungus, Chaetomium globosum QEN-14” (J Nat Prod, 2010).
